Measurements from publication PMC3316592, “Functional Analysis of General Odorant Binding Protein 2 from the Meadow Moth, Loxostege sticticalis L. (Lepidoptera: Pyralidae)” (PLoS ONE, 2012).
“And” between values parts separate entries of the source, which are not always exact repeats. Equal values may be shown once. “Also recorded” adds a separate entry of the source. Read-outs that look alike come from different tables or passages of the source.

Experiments:
[1] = biological target: recombinant LstiGOBP2 (Loxostege sticticalis, UniProt C6ZDA6); assay: biochemical; type: binding; conditions: for binding to LstiGOBP2 (in words): competitive displacement of 1-NPN
Procedure: Fluorescence spectra were recorded in a right angle configuration on a Lengguang 970 CRT spectrofluorimeter (Shanghai Jingmi, China) at room temperature using a 1-cm light path fluorimeter quartz cuvette. Slit widths of 10 nm were selected for both excitation and emission. The spectra data were processed using 970 CRT 2.0l software.
N-phenyl-1-naphthylamine (1-NPN) was dissolved in methanol to yield a 1 mM stock solution. […] 1-NPN was excited at 337 nm and emission spectra were recorded between 350 and 600 nm. Spectra were recorded with high-speed scanning. All ligands used in competition experiments were dissolved in spectrophotometric-grade methanol. Binding data were collected in three independent measurements.
Bound ligand was evaluated from the values of fluorescence intensity assuming that the protein was 100% active, with a stoichiometry of 1∶1 (protein∶ligand) at saturation. The K1-NPN values were estimated using Prism 5 (GraphPad Software, Inc.) by nonlinear regression for a unique site of binding. The curves were linearized using Scatchard plots.

[2] = system: L. sticticalis antennae; assay: Electroantennogram (EAG) recording; set-up: species or system Loxostege sticticalis; conditions: for EAG depolarization / EAG response (in words): 10 mg/ml in hexane; for EAG depolarization: highest EAG responses; for EAG response (in words): adult antennae
Procedure: Antennae of adult moths were excised at the base and immediately placed on an EAG Micromanipulator MP-15 (Syntech) platform for EAG. Antennae were attached to two electrode holders with non-drying clay (Spectra 360 Electrode Gel). […] Pure chemicals were diluted with hexane to a final concentration of 10 mg/ml. EAG signals were amplified, monitored, and analyzed with EAG-Pro software (Syntech). The preparation was held in a humidified air stream delivered by a Syntech stimulus controller (CS-55 model; Syntech) at 500 ml/min, to which a stimulus pulse of 40 ml/min was added for […]. Signals were recorded for 10 sec, beginning at 2 sec before the onset of the stimulus pulse. An aliquot (10 µl) of each stimulus was loaded onto a filter paper strip. After each sample was tested, hexane was tested as a control. EAG responses of at least three antennae were recorded.

[3] = system: LstiGOBP1; set-up: method as in earlier work; conditions: cited from earlier work
[4] = at ligand concentration 20 µM, protein 2 µM, 1-NPN probe, read-out: Int (fluorescence intensity as percent of the initial fluorescence)
[5] = calculated from IC50: Ki = [IC50]/1+[1-NPN]/K1-NPN, read-out: Ki (relative dissociation constant)
[6] = read-out: Int (fluorescence intensity as percent of the initial fluorescence)
[7] = protein 2 µM, 1-NPN probe, ligand titrated to 2–50 µM in methanol, read-out: IC50 (concentration of ligand halving the initial fluorescence intensity)
[8] = IC50 (concentration of ligand halving the initial fluorescence intensity), protein 2 µM, 1-NPN probe, ligand titrated to 2–50 µM in methanol
[9] = Ki (relative dissociation constant), calculated from IC50: Ki = [IC50]/1+[1-NPN]/K1-NPN
[10] = read-out: Int (fluorescence intensity as percent of the initial fluorescence), at ligand concentration 20 µM, protein 2 µM, 1-NPN probe
[11] = at ligand concentration 20 µM, protein 2 µM, 1-NPN probe

Chain of recombinant LstiGOBP2 (C6ZDA6 entry or part of it): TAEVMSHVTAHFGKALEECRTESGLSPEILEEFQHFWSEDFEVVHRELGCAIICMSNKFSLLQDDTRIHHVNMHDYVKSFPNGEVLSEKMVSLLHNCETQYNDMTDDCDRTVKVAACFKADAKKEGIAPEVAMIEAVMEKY

C=CC(C)(O)CCC=C(C)C (single isomer, unassigned; (-)) [(-)-Linalool]
IC50 [1]: 28 µM
Ki [1]: 16.5 µM
activity at 20 µM [1, 4]: 53%

CCCCCCC=O [1-Heptanal]
IC50 [1]: 24 µM
Ki [1, 5]: 14.1 µM
activity at 20 µM [1, 6]: 52%

CCCCCCCO [1-Heptanol]
IC50 [1]: 10.5 µM
Ki [1, 5]: 6.2 µM
activity at 20 µM [1, 6]: 40%
EAG depolarization [2]: −1.6 mV

CCCCCC=O [1-Hexanal]
IC50 [1]: 12.5 µM
Ki [1]: 7.3 µM
binding to LstiGOBP2 (in words) [1]: high affinities
activity at 20 µM [1, 6]: 36%

CCCCCCO [1-Hexanol]
IC50 [1]: 11 µM
Ki [1, 5]: 6.5 µM
activity at 20 µM [1, 6]: 42%

c1ccc(Nc2cccc3ccccc23)cc1 [1-NPN, N-phenyl-1-naphthylamine, reference compound]
Kd [1]: ~1.44 µM

CCCCCCCCC=O [1-Nonanal]
activity at 20 µM [1, 4]: 66%
Ki [1, 5]: 22.9 µM
binding to LstiGOBP2 (in words) [1]: very weak binding affinity
IC50 [1, 7]: 39 µM

CCCCCCCC=O [1-Octanal]
activity at 20 µM [1, 4]: 52%
Ki [1, 5]: 14.1 µM
IC50 [1, 7]: 24 µM
EAG depolarization [2]: −1.6 mV

C=CC(O)CCCCC (stereo not shown) [1-Octen-3-ol]
EAG response (in words) [2]: strong responses; also recorded: intensive responses
binding to LstiGOBP1 (in words) [3]: present an affinity

CCCCC=O [1-Pentanal]
activity at 20 µM [1, 4]: 46%
Ki [1, 5]: 8.2 µM
binding to LstiGOBP2 (in words) [1]: high affinities
IC50 [1, 7]: 14 µM

CC(C)(C)c1ccc(O)c(C(C)(C)C)c1 [2,4-Di-tert-butylphenol]
IC50 [1]: 20 µM
Ki [1]: 11.8 µM
binding to LstiGOBP2 (in words) [1]: high affinity
activity at 20 µM [1, 6]: 50%
EAG response (in words) [2]: weak effects; also recorded: weak response

CC=CCCCO [4-Hexen-1-ol]
IC50 [1]: 26 µM
Ki [1]: 15.3 µM
activity at 20 µM [1, 4]: 58%

CC(C)=CCCC(C)O (stereo not shown) [6-Methyl-5-hepten-2-ol]
activity at 20 µM [1, 4]: 63%
Ki [1, 5]: 16.5 µM
IC50 [1, 7]: 28 µM

CC(=O)CCC=C(C)C [6-Methyl-5-hepten-2-one]
IC50 [1, 8]: 28 µM
Ki [1, 9]: 16.5 µM
activity at 20 µM [1, 10]: 64%

C=C1CC/C=C(\C)CC[C@@H]2[C@@H]1CC2(C)C [(-)-Trans-caryophyllene]
IC50 [1]: > 50 µM
binding to LstiGOBP2 (in words) [1]: very weak binding affinity
activity at 20 µM [1, 6]: 86%

O=Cc1ccccc1 [Benzaldehyde]
IC50 [1, 8]: 19 µM
Ki [1, 9]: 11.2 µM
activity at 20 µM [1, 10]: 48%
EAG response (in words) [2]: weak response

c1ccc2scnc2c1 [Benzothiazole]
IC50 [1]: 22 µM
Ki [1]: 12.9 µM
activity at 20 µM [1, 6]: 52%

C=C1C2CCC(C2)C1(C)C (stereo not shown) [Camphene]
IC50 [1, 7]: 23 µM
activity at 20 µM [1, 6]: 54%

CC12CCC(CC1=O)C2(C)C (stereo not shown) [Camphor]
IC50 [1]: 14 µM
Ki [1, 5]: 8.2 µM
activity at 20 µM [1, 6]: 41%

O=C/C=C/c1ccccc1 [Cinnamaldehyde]
IC50 [1, 8]: 17 µM
Ki [1, 9]: 10 µM
activity at 20 µM [1, 10]: 45%
EAG response (in words) [2]: weak response

CCC/C=C\CO [Cis-2-hexen-1-ol]
IC50 [1]: 24 µM
Ki [1]: 14.1 µM
activity at 20 µM [1, 4]: 59%

CC/C=C\CCO [Cis-3-hexen-1-ol]
IC50 [1]: 19 µM
Ki [1]: 11.2 µM
binding to LstiGOBP2 (in words) [1]: high binding affinities
activity at 20 µM [1, 6]: 49%
EAG response (in words) [2]: high EAG response

CC/C=C\CCOC(C)=O [Cis-3-hexenyl acetate]
activity at 20 µM [1, 4]: 57%
Ki [1, 5]: 17.1 µM
IC50 [1, 7]: 29 µM

COC(=O)c1ccccc1C(=O)OC [Dimethyl phthalate]
IC50 [1, 8]: 20 µM and 36 µM
Ki [1, 9]: 11.8 µM and 21.2 µM
Int (fluorescence intensity as percent of the initial fluorescence) ([1]; at ligand concentration 20 µM, protein 2 µM, 1-NPN probe, 20 µM): 64%
activity at 20 µM [1, 10]: 50%

CC(C)=CCC/C(C)=C/CO [Geraniol]
IC50 [1, 8]: 22 µM
Ki [1, 9]: 12.9 µM
activity at 20 µM [1, 10]: 54%

COC(=O)c1ccccc1O [Methyl salicylate]
IC50 [1]: > 50 µM
activity at 20 µM [1, 6]: 83%

C=CC(=C)CCC=C(C)C [Myrcene]
activity at 20 µM [1, 4]: 56%
Ki [1, 5]: 14.7 µM
IC50 [1, 7]: 25 µM

CCCCCCCCCCCCCCC [Pentadecane]
binding to LstiGOBP1 (in words) [3]: bind

O=CCc1ccccc1 [Phenyl acetaldchyde]
Int (fluorescence intensity as percent of the initial fluorescence) [1, 11]: 50%
Ki [1, 5]: 11.8 µM
IC50 [1, 7]: 20 µM

C=C(C)[C@H]1CC=C(C)CC1 [R-(+)-Limonene]
binding to LstiGOBP2 (in words) [1]: do not show affinities
EAG response (in words) [2]: strong responses
binding to LstiGOBP1 (in words) [3]: do not show affinities

CCC/C=C/CO [Trans-2-hexen-1-ol]
EAG response (in words) [2]: intensive responses
EAG response (in words) ([2]; listed as E-2-hexeno1): strong responses
binding to LstiGOBP1 (in words) [3]: present an affinity

CCC/C=C/C=O [Trans-2-hexenal]
IC50 [1]: 10.5 µM
Ki [1]: 6.2 µM
binding to LstiGOBP2 (in words) [1]: high binding affinities
EAG response (in words) [2]: high EAG response

CCC/C=C/COC(C)=O [Trans-2-hexenyl acetate]
activity at 20 µM [1, 4]: 59%
Ki [1, 5]: 16.5 µM
IC50 [1, 7]: 28 µM

CC/C=C/CCCCCCCCCCOC(C)=O [Trans-11-tetradecen-1-yl acetate]
activity at 20 µM [1, 4]: 48%
Ki [1, 5]: 10.6 µM
binding to LstiGOBP2 (in words) [1]: bind strongly; also recorded: high binding affinity
IC50 [1, 7]: 18 µM
EAG response of the male antennae (in words) ([2]; male antennae, 10 mg/ml): highest among all the volatiles tested
EAG response difference between males and females ([2]; male vs female antennae): significantly different

CC1=CC[C@H](C(C)C)C=C1 [α-Phellandrene]
binding to LstiGOBP2 (in words) [1]: do not show affinities
EAG response (in words) [2]: strong responses
binding to LstiGOBP1 (in words) [3]: do not show affinities

CC(=O)/C=C/C1C(C)=CCCC1(C)C (stereo not drawn) [α-ionone]
IC50 [1, 8]: 8 µM
Ki [1, 9]: 4.7 µM
binding to LstiGOBP2 (in words) [1]: strongest affinities
activity at 20 µM [1, 10]: 39%
EAG response (in words) [2]: weak effects; also recorded: failed to elicit a strong electrophysiological response

CC(=O)/C=C/C1=C(C)CCCC1(C)C [β-ionone]
IC50 [1, 8]: 11 µM
Ki [1, 9]: 6.5 µM
binding to LstiGOBP2 (in words) [1]: strongest affinities
activity at 20 µM [1, 10]: 37%
EAG response (in words) [2]: weak effects; also recorded: failed to elicit a strong electrophysiological response

Iso-octanol
Int (fluorescence intensity as percent of the initial fluorescence) [1, 11]: 58%
Ki [1, 5]: 16.5 µM
IC50 [1, 7]: 28 µM
